Experimental data: patent US20090215812A1, “BIOMARKERS FOR EVALUATING LIKELIHOOD OF TUMOR SENSITIVITY TO AN MTOR INHIBITOR” (ARIAD GENE THERAPEUTICS, INC., priority 2005, published 2009)

How the values were obtained:
AN3CA = experiment: in vitro proliferation assay (CellTiter 96 Aqueous One Solution); assay type: cell-based, human; details: average of 10, 33 and 100 nM, 3 days incubation, relative to untreated wells
Procedure: (§1) A series of in vitro proliferation assays were performed on 14 human tumor-derived cell lines exposed to AP23573 at concentrations ranging from 0.01 nM to […]. Cells were plated into 96-well plates (between 750 and 5000 cells per well as per the table below), in cell culture medium containing serial dilutions of AP23573, or in the absence of AP23573 as a control, and were then incubated for 3 days.
(§2) At the end of the incubation, the number of cells in each well (cell viability) was determined using a CellTiter 96® Aqueous One Solution Cell Proliferation metabolic activity assay kit (Promega). This assay is based on the use of a reagent that monitors the total reducing environment of a population of cells. The quantity of reduced products, which is determined spectrophotometrically, is directly proportional to the number of viable cells in the culture. The percentage of cells remaining after treatment with each concentration of AP23573 was then determined relative to the number of cells remaining in the untreated wells.
(§3) For each cell line the percentage cells remaining after treatment with AP23573 reached a plateau between 1 and 10 nM. Thus the inhibitory effect of AP23573 on cell proliferation was calculated by taking the average of the percentage of cells remaining at the 10, 33 and 100 nM concentration levels. A lower percentage of cells remaining reflects a larger inhibitory effect of AP23573. The experiment was performed two or three times for each cell line and the results averaged.

BT474 = experiment: as above; assay type: cell-based, human; details: average of 10, 33 and 100 nM, 3 days incubation, relative to untreated wells
Procedure: as §1, §2, §3

DU145 = experiment: as above; assay type: cell-based, human; details: average of 10, 33 and 100 nM, 3 days incubation, relative to untreated wells
Procedure: as §1, §2, §3

ES2 = experiment: as above; assay type: cell-based, human; details: average of 10, 33 and 100 nM, 3 days incubation, relative to untreated wells
Procedure: as §1, §2, §3

HCT116 = experiment: as above; assay type: cell-based, human
Procedure: as §1, §2, §3

HEC1A = experiment: as above; assay type: cell-based, human; details: average of 10, 33 and 100 nM, 3 days incubation, relative to untreated wells
Procedure: as §1, §2, §3

HT1080 = experiment: as above; assay type: cell-based, human
Procedure: as §1, §2, §3

MCF7 = experiment: as above; assay type: cell-based, human; details: average of 10, 33 and 100 nM, 3 days incubation, relative to untreated wells
Procedure: as §1, §2, §3

MDA-435S = experiment: as above; assay type: cell-based, human; details: average of 10, 33 and 100 nM, 3 days incubation, relative to untreated wells
Procedure: as §1, §2, §3

MDA-453 = experiment: as above; assay type: cell-based, human; details: average of 10, 33 and 100 nM, 3 days incubation, relative to untreated wells
Procedure: as §1, §2, §3

MDA-468 = experiment: as above; assay type: cell-based, human; details: average of 10, 33 and 100 nM, 3 days incubation, relative to untreated wells
Procedure: as §1, §2, §3

PC3 = experiment: as above; assay type: cell-based, human; details: average of 10, 33 and 100 nM, 3 days incubation, relative to untreated wells
Procedure: as §1, §2, §3

SKBR3 = experiment: as above; assay type: cell-based, human; details: average of 10, 33 and 100 nM, 3 days incubation, relative to untreated wells
Procedure: as §1, §2, §3

SKOV3 = experiment: as above; assay type: cell-based, human; details: average of 10, 33 and 100 nM, 3 days incubation, relative to untreated wells
Procedure: as §1, §2, §3

[1] = tested on: 14 human tumor-derived cell lines; experiment: in vitro proliferation assays on panel of tumor cell lines; assay type: cell-based
Procedure: as §1, §2
For each cell line the percentage cells remaining after treatment with AP23573 reached a plateau between 1 and 10 nM. Thus the inhibitory effect of AP23573 on cell proliferation was calculated by taking the average of the percentage of cells remaining at the 10, 33 and 100 nM concentration levels. […]

sarcoma = experiment: ongoing clinical trial of AP23573 in sarcoma; assay type: in vivo, human; details: number of patients
Excerpt: The experiment is repeated several times using either mixed sets of samples that included samples from tumors of various types or using sets of samples from a single tumor type (prostate cancer, leiomyosarcoma, osteosarcoma). Some of the samples are obtained from an ongoing clinical trial of AP23573 in sarcoma, results of which are presented below: […]

[2] = average of 10, 33 and 100 nM, 3 days incubation, relative to untreated wells

With `CO[C@H]1C[C@@H]2CC[C@@H](C)[C@@](O)(O2)C(=O)C(=O)N2CCCC[C@H]2C(=O)O[C@H]([C@H](C)C[C@@H]2CC[C@@H](OP(C)(C)=O)[C@H](OC)C2)CC(=O)[C@H](C)/C=C(\C)[C@@H](O)[C@@H](OC)C(=O)[C@H](C)C[C@H](C)/C=C/C=C/C=C/1C` [AP23573] the “Percent Cells Remaining” value (AN3CA) was 45%, the “Percent Cells Remaining” value (BT474) was 80% and the “Percent Cells Remaining” value (DU145) was 81%. For the same compound, the “Percent Cells Remaining” value (ES2) was 63%, the “Percent Cells Remaining” value (HCT116; [2]) was 94% and the “sensitivity to AP23573” value (HCT116; low FKBP12 expression level) was “relatively resistant”. For the same compound, the “Percent Cells Remaining” value (HEC1A) was 70%, the “Percent Cells Remaining” value (HT1080; [2]) was 37% and the “sensitivity to AP23573” value (HT1080; high FKBP12 expression level) was “relatively sensitive”. The “Percent Cells Remaining” value (MCF7) was 55%, the “Percent Cells Remaining” value (MDA-435S) was 68% and the “Percent Cells Remaining” value (MDA-453) was 58%. For the same compound, the “Percent Cells Remaining” value (MDA-468) was 77%, the “Percent Cells Remaining” value (PC3) was 51% and the “Percent Cells Remaining” value (SKBR3) was 55%. For the same compound, the “Percent Cells Remaining” value (SKOV3) was 61%, the “sensitivity to AP23573” value ([1]; HEC1A, BT474, MDA468, DU145, HCT116 (lower FKBP12 expression)) was “lower levels of sensitivity” and the “sensitivity to AP23573” value ([1]; HT1080, PC3, ES2, SKBR3 (relatively high FKBP12 expression)) was “relatively high levels of sensitivity”. For the same compound, the “CR/PR (complete response / partial response)” value (sarcoma; Bone Cohort (19)) was 3, the “PD (progressive disease)” value (sarcoma; Bone Cohort (19)) was 5 and the “CR/PR (complete response / partial response)” value (sarcoma; Leiomyosarcoma (18)) was 0. For the same compound, the “PD (progressive disease)” value (sarcoma; Leiomyosarcoma (18)) was 6, the “CR/PR (complete response / partial response)” value (sarcoma; Liposarcoma (13)) was 0 and the “PD (progressive disease)” value (sarcoma; Liposarcoma (13)) was 5. The “CR/PR (complete response / partial response)” value (sarcoma; Other Sarcoma (20)) was 0 and the “PD (progressive disease)” value (sarcoma; Other Sarcoma (20)) was 7.
